The assay deals with T1, galectin-3 (Homo sapiens, UniProt P17931).
T1 construct: purchased IBL IBATGPO414
The experiment in a line: Galectin-3 Activity - ELISA Assay (inhibition of binding of galectin-3 to a Galβ1-3GlcNAc carbohydrate structure). The conditions noted are these: competitive ELISA; galectin-3 binding to immobilized Galβ1-3GlcNAcβ1-3Galβ1-4GlcNAcβ-PAA-biotin polymer; A450 readout; read-out: IC50 (μM), Galectin-3 Antagonist Activity. The procedure: Galectin-3 antagonists were evaluated for their ability to inhibit binding of galectin-3 to a Galβ1-3GlcNAc carbohydrate structure. The detailed protocol was as follows. A 1 ug/mL suspension of a Galβ1-3GlcNAcβ1-3Galβ1-4GlcNAcβ-PAA-biotin polymer (Glycotech, catalog number 01-096) was prepared. A 100 uL aliquot of the polymer was added to the wells of a 96-well streptavidin-coated plate (R&D Systems, catalog number CP004). A 100 uL aliquot of 1× Tris Buffered Saline (TBS, Sigma, catalog number T5912-10X) was added to control wells. The polymer was allowed to bind to the streptavidin-coated wells for 1.5 hours at room temperature. The contents of the wells were discarded and 200 uL of 1×TBS containing 1% bovine serum albumin (BSA) was added to each well as a blocking reagent and the plate was kept at room temperature for 30 minutes. The wells were washed three times with 1×TBS containing 0.1% BSA. A serial dilution of test compounds was prepared in a separate V-bottom plate (Corning, catalog number 3897). A 75 uL aliquot of the highest concentration of the compound to be tested was added to the first well in a column of the V-bottom plate then 15 ul were serially transferred into 60 uL 1×TBS through the remaining wells in the column to generate a 1 to 5 serial dilution. A 60 uL aliquot of 2 ug/mL galectin-3 (IBL, catalog number IBATGPO414) was added to each well in the V-bottom plate. A 100 uL aliquot of the galectin-3/test compound mixture was transferred from the V-bottom plate into the assay plate containing the Galβ1-3GlcNAc polymer. Four sets of control wells in the assay plate were prepared in duplicate containing 1) both Galβ1-3GlcNAc polymer and galectin-3, 2) neither the polymer nor galectin-3, 3) galectin-3 only, no polymer, or 4) polymer only, no galectin-3. The plate was gently rocked for 1.5 hours at room temperature. The wells were washed four times with TBS/0.1% BSA. A 100 uL aliquot of anti-galectin-3 antibody conjugated to horse radish peroxidase (R&D Systems, from DGAL30 kit) was added to each well and the plate was kept at room temperature for 1 hour. The wells were washed four times with TBS/0.1% BSA. A 100 uL aliquot of TMB substrate solution was added to each well. The TMB substrate solution was prepared by making a 1:1 mixture of TMB Peroxidase Substrate (KPL, catalog number 5120-0048) and Peroxidase Substrate Solution B (KPL, catalog number 5120-0037). The plate was kept at room temperature for 10 to 20 minutes. The color development was stopped by adding 100 uL 10% phosphoric acid (RICCA Chemical Co., catalog number 5850-16). The absorbance at 450 nm (A450) was measured using a FlexStation 3 plate reader (Molecular Devices). Plots of A450 versus test compound concentration and IC50 determinations were made using GraphPad Prism 6.
A general note: ELISA stands for enzyme-linked immunosorbent assay.

The record followed here is US20230091472A1, “GALECTIN-3 INHIBITING C-GLYCOSIDE KETONES, ETHERS, AND ALCOHOLS” (GLYCOMIMETICS, INC., priority 2019, published 2023).

T1 sequence (P17931 whole entry): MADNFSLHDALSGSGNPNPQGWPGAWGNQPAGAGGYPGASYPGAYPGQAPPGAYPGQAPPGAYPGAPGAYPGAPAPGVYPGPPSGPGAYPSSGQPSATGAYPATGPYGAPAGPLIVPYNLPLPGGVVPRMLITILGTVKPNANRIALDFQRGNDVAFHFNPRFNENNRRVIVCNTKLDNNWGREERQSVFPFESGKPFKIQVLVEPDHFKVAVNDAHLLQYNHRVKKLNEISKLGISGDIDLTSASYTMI

The IC50 is the concentration that gives 50% inhibition. As for `[2H]C([2H])([2H])OC1C(n2cc(-c3cc(F)c(F)c(F)c3)nn2)[C@@H](O)C(CO)O[C@H]1[C@H](OCc1ccc(Br)cc1)C(=O)c1ccsc1` (stereo partly drawn) [Compound 80], the IC50 was 0.44 µM.

Consider `CC(=O)[C@@H](OCc1ccc(Br)cc1)[C@@H]1OC(CO)[C@H](O)C(n2cc(-c3cc(F)c(F)c(F)c3)nn2)C1O` (stereo partly drawn) [Compound 16], for which the IC50 came out at 0.32 µM.

In the case of `COC1C(n2cc(-c3cc(F)c(F)c(F)c3)nn2)[C@@H](O)C(CO)O[C@H]1[C@H](OCc1ccc(C(F)(F)F)nc1)C(C)(C)O` (stereo partly drawn) [Compound 44], the IC50 was 57 µM.

For `CCC(=O)[C@@H](OCc1ccc(Cl)cc1)[C@@H]1OC(CO)[C@H](O)C(n2cc(-c3cc(F)c(F)c(F)c3)nn2)C1OC` (stereo partly drawn) [Compound 35], the IC50 turned out to be 0.75 µM.

Take `COC1C(n2cc(-c3cc(F)c(F)c(F)c3)nn2)[C@@H](O)C(CO)O[C@H]1[C@H](OCc1ccc(Cl)cc1)C(=O)c1cccs1` (stereo partly drawn) [Compound 34]: the IC50 stood at 0.84 µM.

As to `COC1C(n2cc(-c3cc(F)c(F)c(F)c3)nn2)[C@@H](O)C(CO)O[C@H]1[C@H](OCc1ccc(Cl)cc1)C(=O)CC(C)C` (stereo partly drawn) [Compound 33], the 50% inhibitory concentration (IC50) stood at 0.63 µM.

As for `[2H]C([2H])([2H])OC1C(n2cc(-c3cc(F)c(F)c(F)c3)nn2)[C@@H](O)C(CO)O[C@H]1[C@H](OCc1ccc(Br)cc1)C(=O)C([2H])([2H])C([2H])([2H])[2H]` (stereo partly drawn) [Compound 78], the half-maximal inhibitory concentration (IC50) worked out at 0.5 µM.

For the molecule `COC1C(n2cc(-c3cc(F)c(F)c(F)c3)nn2)[C@@H](O)C(CO)O[C@H]1[C@H](OCc1ccc(Cl)cc1)C(C)=O` (stereo partly drawn) [Compound 32], the concentration for half-maximal inhibition (IC50) was determined as 0.82 µM.

Take `[2H]C([2H])([2H])OC1C(n2cc(-c3cc(F)c(F)c(F)c3)nn2)[C@@H](O)C(CO)O[C@H]1[C@H](OCc1ccc(Br)cc1)C(=O)c1ccc(Cl)s1` (stereo partly drawn) [Compound 81]: the IC50 worked out at 3.21 µM.

For `COC1C(n2cc(-c3cc(F)c(F)c(F)c3)nn2)[C@@H](O)C(CO)O[C@H]1[C@H](OCc1ccc(Cl)cc1)C(=O)C1CC1` (stereo partly drawn) [Compound 75], the IC50 came out at 1.18 µM.

In the case of `COC1C(n2cc(-c3cc(F)c(F)c(F)c3)nn2)[C@@H](O)C(CO)O[C@H]1[C@H](OCc1ccc(Cl)cc1)[C@@H](C)O` (stereo partly drawn) [Compound 41], the IC50 worked out at 0.59 µM.

Turning to `[2H]C([2H])([2H])OC1C(n2cc(-c3cc(F)c(F)c(F)c3)nn2)[C@@H](O)C(CO)O[C@H]1[C@H](OCc1ccc(Cl)cc1)C(C)=O` (stereo partly drawn) [Compound 77], the IC50 came out at 1.09 µM.

As for `[2H]C([2H])([2H])OC1C(n2cc(-c3cc(F)c(F)c(F)c3)nn2)[C@@H](O)C(CO)O[C@H]1[C@H](OCc1ccc(Br)cc1)C(=O)c1ccc(F)cc1` (stereo partly drawn) [Compound 79], the IC50 is 1.76 µM.

Take `CCC(=O)[C@@H](OCc1ccc(Cl)cc1)[C@@H]1OC(CO)[C@H](O)C(n2cc(-c3cc(F)c(F)c(F)c3)nn2)C1O` (stereo partly drawn) [Compound 74]: the IC50 amounted to 0.32 µM.

On to `[2H]C([2H])([2H])OC1C(n2cc(-c3cc(F)c(F)c(F)c3)nn2)[C@@H](O)C(CO)O[C@H]1[C@H](OCc1ccc(Cl)cc1)C(=O)C([2H])([2H])C([2H])([2H])[2H]` (stereo partly drawn) [Compound 76], for which the IC50 was 0.66 µM.
